Assays:
Format in all cases: physicochemical
[1] = degree of order S (dichroic ratio CR) in ZLI 1840 at room temperature; design: key: S = (CR-1)/(CR+2), with CR = E∥/E⊥ dichroic ratio; conditions: ZLI 1840 wide-range mixture (Merck)
Method: (§1) The degrees of order S and the solubilities L, both measured at room temperature in the ZLI 1840 wide-range mixture from Merck, are summarized in Table 1 for Examples 1-18. The degrees of order S and the solubilities L for Examples 19-32, measured at room temperature in the […] liquid crystal mixture from Merck, are summarized in Table 3.
(§2) The degree of order S was determined in accordance with the known equation S=(CR-1)/(CR+2), using commercial measuring cells with homogeneous edge orientation. The dichroic ratio CR was determined by measuring the extinctions E^.parallel. (measured using polarized light parallel to the preferred direction of the nematic phase) and E^.perp. (measured using polarized light perpendicular to the preferred direction of the nematic phase) and using the relationship CR=E^.parallel. /E^.perp. the dye concentration being chosen so that E^.parallel. was from 1 to 2. The measurements were carried out using a Beckman Acta CIII spectrophotometer.

[2] = solubility L in ZLI 1840 at room temperature; conditions: ZLI 1840 (Merck), stirred 1 week
Method: as §1
(§3) The solubility was determined as follows: 50 mg of the particular dye were stirred into 1 ml of ZLI 1840 at room temperature for 1 week, and saturation of the soluton was determined by comparing extinction values.

[3] = degree of order S (dichroic ratio CR) in ZLI 1957/5 at room temperature; conditions: ZLI 1957/5 liquid crystal mixture (Merck)
Method: as §1, §2

[4] = solubility L in ZLI 1957/5 at room temperature; conditions: ZLI 1957/5 liquid crystal mixture (Merck)
Method: as §1, §3

[5] = light-stability, high-speed exposure of the measuring cell in a Suntest; conditions: 25° C
Method: The light-stability was determined by high-speed exposure of the measuring cell in a Suntest from Hanau, at 25° C. In this procedure, the decrease in E^.parallel. was measured. The initial extinction E^.parallel. and the exposure time E^.parallel.80% after which E^.parallel. has decreased to 80% are shown in Table 2 for Examples 5, 8, 9, 10, 11, 12, 13, 14 and 15. The percentage change in E^.parallel.0 is plotted against the exposure time in FIGS. 2, 3 and 4 for Examples 8, 11 and 15.

Row | SMILES | Degree of order S [1] | Solubility L [2] | Degree of order S [3] | Solubility L [4] | exposure time E∥80% after which E∥ has decreased to 80% [5]
1 | Cc1ccc2nn(-c3ccc(N=Nc4ccc(N=Nc5ccc(NCc6ccccc6)cc5)cc4C)cc3C)nc2c1 [Example 23] | 0,79 | 1,9% |  |  | 
2 | CCCCN(C)c1ccc(N=Nc2cc(OC)c(N=Nc3ccc(-n4nc5ccc(C)cc5n4)c(C)c3)cc2OC)cc1 [Example 30] |  |  | 0,67 | 0,3% | 
3 | Cc1ccc2nn(-c3ccc(N=Nc4ccc(N=Nc5ccc(N(C)C)cc5)cc4C)cc3C)nc2c1 [Example 21] | 0,76 | 2,8% |  |  | 
4 | CCCCN(C)c1ccc(N=Nc2cc(C)c(N=Nc3ccc(-n4nc5ccc(C)cc5n4)c(C)c3)cc2OC)cc1 [Example 29] |  |  | 0,71 | 0,5% | 
5 | CCCCOC(=O)c1ccc2nn(-c3ccc(N=Nc4cc(C)c(N=Nc5ccc(N(C)C)cc5)cc4C)cc3C)nc2c1 [Example 19] | 0,76 | 0,3% |  |  | 
6 | CCCCN(C)c1ccc(N=Nc2ccc(N=Nc3ccc(-n4nc5ccc(C)cc5n4)c(C)c3)c(C)c2)cc1 [Example 24] | 0,77 | > 5% |  |  | 
7 | Cc1ccc2nn(-c3ccc(N=Nc4cc(C)c(N=Nc5ccc(N(C)C)cc5)cc4C)cc3)nc2c1 [Example 10] | 0,73 | 0,6% |  |  | 147 h
8 | CCCCNc1ccc(N=Nc2ccc(N=Nc3ccc(-n4nc5ccc(C)cc5n4)c(C)c3)c(C)c2)cc1 [Example 22] | 0,77 | > 5% |  |  | 
9 | COc1cc(N=Nc2ccc(N(C)C)cc2)ccc1N=Nc1ccc(-n2nc(C)c(C)n2)cc1 [Example 4] | 0,70 | 0,7% |  |  | 
10 | Cc1nn(-c2ccc(N=Nc3ccc(N=Nc4ccc(N(C)C)cc4)cc3)cc2)nc1C [Example 3] | 0,74 | 0,4% |  |  | 
11 | CCCCc1ccc2nn(-c3ccc(N=Nc4ccc(N=Nc5ccc(N(C)C)cc5)cc4C)cc3C)nc2c1 [Example 15] | 0,79 | 2,8% |  |  | 68 h
12 | Cc1nn(-c2cc(C#N)c(N=Nc3ccc(N=Nc4ccc(N(C)C)cc4)cc3)c(C#N)c2)nc1C [Example 7] | 0,74 | < 0,1% |  |  | 
13 | CCCCc1ccc2nn(-c3ccc(N=Nc4ccc(N=Nc5ccc(N(C)C)cc5C)cc4C)cc3C)nc2c1 [Example 27] | 0,75 | 3,9% |  |  | 
14 | CN(C)c1ccc(N=Nc2ccc(-n3nc4c(n3)CCCC4)cc2)cc1 [Example 2] | 0,71 | 1,4% |  |  | 
15 | CCC1CCC(c2ccc(COc3ccc(N=Nc4cc(C)c(N=Nc5ccc(-n6nc7ccc(C)cc7n6)c(C)c5)cc4C)c(C)c3)cc2)CC1 (stereo not shown) [Example 18] | 0,77 | 2,9% |  |  | 
16 | CCCCc1ccc2nn(-c3ccc(N=Nc4cc(C)c(N=Nc5ccc(NC)c6ccccc56)cc4C)cc3C)nc2c1 [Example 31] | 0,70 | 2,0% |  |  | 

Row | SMILES | Degree of order S [1] | Solubility L [2] | Degree of order S [3] | Solubility L [4] | exposure time E∥80% after which E∥ has decreased to 80% [5]
17 | Cc1ccc2nn(-c3ccc(N=Nc4ccc(N=Nc5ccc(N(C)CC(C)C)cc5C)cc4C)cc3C)nc2c1 [Example 28] |  |  | 0,72 | 1,5% | 
18 | Cc1ccc2nn(-c3ccc(N=Nc4ccc(N=Nc5ccc(N(C)C)cc5C)cc4C)cc3C)nc2c1 [Example 26] | 0,76 | 2,0% |  |  | 
19 | Cc1ccc2nn(-c3ccc(N=Nc4ccc(N=Nc5ccc(N(C)Cc6ccccc6)cc5)cc4C)cc3C)nc2c1 [Example 25] | 0,76 | 1,9% |  |  | 
20 | CCCCN(CCCC)c1ccc(N=Nc2ccc(N=Nc3ccc(-n4nc5ccc(C)cc5n4)c(C)c3)c(C)c2)cc1 [Example 13] | 0,74 | > 5% |  |  | 97 h
21 | CCCCc1ccc2nn(-c3ccc(N=Nc4cc(C)c(N=Nc5ccc(N(C)C)cc5)cc4C)cc3C)nc2c1 [Example 14] | 0,76 | > 2,3% |  |  | 111 h
22 | CCCCc1ccc2nn(-c3ccc(N=Nc4cc(C)c(N=Nc5ccc(N(C)C)c6ccccc56)cc4C)cc3C)nc2c1 [Example 32] | 0,65 | 0,1% |  |  | 
23 | Cc1nn(-c2ccc(N=Nc3ccc(N4CCOCC4)cc3)cc2)nc1C [Example 1] | 0,64 |  |  |  | 
24 | Cc1ccc2nn(-c3cc(C)c(N=Nc4cc(C)c(N=Nc5ccc(N(C)C)cc5)cc4C)cc3C)nc2c1 [Example 9] | 0,76 | 0,5% |  |  | 111 h
25 | Cc1nn(-c2cc(Br)c(N=Nc3ccc(N=Nc4ccc(N(C)C)cc4)cc3)c(Br)c2)nc1C [Example 6] | 0,61 | 1,8% |  |  | 
26 | CCOC(=O)c1nn(-c2ccc(N=Nc3ccc(N=Nc4ccc(N(C)C)cc4)c4ccccc34)cc2)nc1C [Example 8] | 0,74 | 0,5% |  |  | 27,5 h
27 | CCCCN(C)c1ccc(N=Nc2cc(C)c(N=Nc3ccc(-n4nc5ccc(C)cc5n4)c(C)c3)cc2C)cc1 [Example 20] |  |  | 0,74 | 2,0% | 
28 | Cc1ccc2nn(-c3ccc(N=Nc4ccc(N=Nc5ccc(N)cc5C)cc4C)cc3C)nc2c1 [Example 11] |  |  |  |  | 170 h
29 | CCOC(=O)c1nn(-c2ccc(N=Nc3cc(C)c(N=Nc4ccc(N(C)C)cc4)cc3C)cc2)nc1C [Example 5] | 0,73 | 0,2% |  |  | 101 h
30 | Cc1ccc2nn(-c3ccc(N=Nc4cc(C)c(N=Nc5ccc(OCc6ccccc6)cc5C)cc4C)cc3C)nc2c1 [Example 17] | 0,74 | 0,6% |  |  | 
31 | CCCCOc1ccc(N=Nc2ccc(N=Nc3ccc(-n4nc5ccc(C)cc5n4)c(C)c3)c(C)c2)c(C)c1 [Example 16] | 0,74 | 0,5% |  |  | 
